The source of these data is patent US9642859B2, “Use of capsazepine and analogs thereof to treat cancer” (THE BOARD OF REGENTS OF THE UNIVERSITY OF TEXAS SYSTEM, priority 2012, dated 2017).

One data set relates to SCC4. Put plainly: Additional cell proliferation assay, SCC4. To be noted: SCC4, 24 hour treatment. In kind it is cell-based, human. The source says: (§1) Observed reductions in cell proliferation in these additional in vitro studies are as follows: SCC4, 40%; HSC3, 50%; SCC25, 80%; Cal27, 15%; MDA231, 56%; and LnCap, 37%.
A further data set deals with HSC3. As to the kind of experiment: Additional cell proliferation assay, HSC3. The data set is classed as cell-based, human. Conditions: HSC3, 24 hour treatment.
Description: as §1

For the next data set, the system named is Cal27. As to the kind of experiment: Additional cell proliferation assay, Cal27. In kind it is cell-based, human. To be noted: Cal27, 24 hour treatment.
Description: as §1

The subject of data set [1] is breast cancer cell line MDA231. As to the kind of experiment: Additional cell proliferation assay, MDA231. The data set is classed as cell-based, human. To be noted: MDA231, 24 hour treatment.
Description: as §1

Data set [2] concerns MDA231 breast cancer cells. As to the kind of experiment: Cell viability assay of MDA231 cells with and without NAC. In kind it is cell-based, human. Conditions: 24 h.
Data set [3] concerns PC3 prostate cancer cells. Put plainly: Cell viability assay of PC3 cells with and without NAC. The data set is classed as cell-based, human. To be noted: PC3 prostate cancer cells, 24 h.
Data set [4] deals with OSCC cell lines (HSC3, SCC4, and SCC25). Put plainly: Calcium imaging of OSCC cell lines. In kind it is cell-based, human. To be noted: capsazepine 30 μM (cytotoxic dose). How it is done: FIGS. 1J-1 to 1J-2. FIGS. 1J-1(a) to (c): […] FIGS. 1J-2(a) to (c): […] Arrow indicates time point when treatment was added. […] This was due to the toxic effects of this high capsaicin concentration which permeablized the cell membrane allowing calcium to flow freely […] the cell. This was not reversed by capsazepine. […] These finding confirm that activation of TRPV1 is not the mechanism by which cell death is induced using capsazepine.

Data set [5] shares this test system. Put plainly: Apoptosis studies, microscopic analysis of OSCC cells. To be noted: CPZ 30, 60 or 90 μM, 24 hrs. The data set is classed as cell-based, human. How it is done: FIGS. 1E-1, 1E-2, and 1E-3. […] In FIG. 1E-1, magnifications of (from left to right) vehicle control HSC3 cells (a) and HSC3 cells treated with 30 μM CPZ (b), 60 μM CP(c), or 90 μM CPZ(d). In FIG. 1E-2, magnifications of (from left to right) vehicle control SCC4 cells (a) and SCC4 cells treated with 30 μM CPZ (b), 60 μM CPZ (c), 90 μM CPZ (d), while, in FIG. 1E-3, magnifications of (from left to right) vehicle control SCC25 cells (a) and SCC25 cells treated with 30 μM CPZ (b), 60 μM CPZ (c), or 90 μM CPZ (d).
To determine if reduced cell viability was due to apoptosis, flow-sort analysis and microscopic analysis of cells in three OSCC cell lines (HSC3, SCC4, and SCC25) following treatment were performed. […] (Compare FIGS. 1E-1(b) to (d), FIGS. 1E-2(b)-(d), and FIGS. 1E-3(b) to (d) with FIG. 1E-1(a), FIG. 1E-2(a), and FIG. 1E-3(a), respectively.)

Another data set deals with SCC25 xenografts. As to the kind of experiment: OSCC mouse xenograft model, SCC25. In kind it is in vivo, athymic nude (nu/nu) mice. The source says: Animals. Six week-old female athymic nude (nu/nu) mice were purchased from HARLAN Laboratories (Indianapolis, Ind.) and used in a laminar air-flow cabinet under pathogen-free conditions. They were provided with a 12-h light/dark schedule at controlled temperature and humidity with food and water ad libitum. Mice were allowed to acclimate for at least one week prior to the start of the experiments. All procedures were approved by the UTHSCSA (University of Texas Health Science Center—San Antonio) Institutional Animal Care and Use Committee.
OSCC Mouse Xenograft Model. Mice were injected subcutaneously in the right flank with 2×10^6 HSC3, SCC4, or SCC25 cells in 0.1 ml of sterile phosphate buffered saline (each of these cell lines is published in scientific literature). Four weeks post-inoculation, tumors had grown to an average volume of 110 mm^3. […] The injections were repeated every other day and for a total of at least 14 days.
Treatments. CPZ (5 mg) was diluted in 250 μl of 100% DMSO to yield a final concentration of 20 μg/μl of stock solution. Stock solution (100 m) was subsequently diluted in 7% DMSO in sterile saline generating a final concentration of 1 μg/μl. […] Control xenografts were injected intra-tumorally with 40 μl of vehicle control (7% DMSO). Mice were monitored daily for tumor growth, cachexia, and weight loss. Tumor volumes and body weight were recorded every other day. Tumor volumes were calculated by the formula: (4π/3)×(w/2)2×(l/2), where w=width and l=length. Measurements were made using a digital caliper. At the conclusion of the experiments, mice were anaesthetized with isoflurane and cervical dislocation, blood was collected, and the serum was separated and stored at −80° C. until assayed. Biochemical analysis of serum was performed by the Mouse Metabolic Phenotyping Center (Yale School of Medicine, New Haven, Conn.). Tumors were dissected and placed in 10% neutral buffered formalin (SIGMA, St. Louis, Mo.) and processed for histological analysis.

For data set [6], the system named is voltage-activated calcium channels. To be noted: cited from earlier work.
In data set [7] the test system is CFA-induced mechanical hyperalgesia. Conditions: guinea pigs; cited from earlier work.

Turning to `Oc1cc2c(cc1O)CN(C(=S)NCCc1ccc(Cl)cc1)CCC2` [CPZ, 2-[2-(4-chlorphenyl)ethylamino-thiocarbonyl]-7,8-dihydroxy-2,3,4,5-tetrahydro-1H-2-benzazepine], the “reduction in cell proliferation” value in the data set with SCC4 amounted to 40%; with HSC3 it was 50%; in the data set on Cal27, 15%; in data set [1], 56%. Also, the cytotoxicity result in data set [2] and in [3] was “significant dose dependent cytotoxicity” in each case. The intra-cellular calcium levels result in [4] is on record as “had no effect on intra-cellular calcium levels”. The apoptosis result in data set [5] is on record as “undergo apoptosis”. Also, the “decrease in tumor volume” value with SCC25 xenografts (20 μg CPZ (1 μg/μl) injections over two weeks, FIG. 13) is reported as 57.5%. In the data set with SCC25 xenografts (20 μg CPZ intra-tumoral every other day), the healing of xenografts entry was “Nearly complete healing”. Besides, the tumor volume entry with SCC25 xenografts (20 μg CPZ intra-tumoral every other day, two weeks, p<0.05) is on record as “significant reduction in tumor volume”. For the same molecule, the “effect on voltage-activated calcium channels” value in [6] is recorded as “Inhibitis”. Also, in [7], the CFA-induced mechanical hyperalgesia entry is on record as “Significantly reversed”.
